Results on four compounds are retold here after patent US5599815A, “Antipsychotic benzoisothiazolyl piperazine derivatives” (Meiji Seika Kabushiki Kaisha, priority 1993, dated 1997).

The test system of series [1] is hyper locomotion induced by methamphetamine in mice. Kind of series: Anti-methamphetamine effect (antipsychotic activity): suppression of hyper locomotion induced by methamphetamine in mice. Format: in vivo, mice (male ddY). The settings on record: ip; for ED50: Mus musculus, read-out: Anti-methamphetamine effect ED50. The procedure:
Antipsychotic activity was evaluated on the basis of the suppressive activity on the stimulation of hyper locomotion induced by methamphetamine in mice. Male ddY mice having a weight of 25-35 g were divided into groups consisting of 3-6 animals. The mouse was subcutaneously administered with methamphetamine (2 mg/kg) fifteen minutes before the compound of the present invention was intraperitoneally administered. After further fifteen minutes, the animal was then placed in an apparatus to measure the locomotion for thirty minutes. (MUROMACHI KIKAI, ANIMEX AUTO MK-110) The effects of haloperidol and chlorpromazine were also evaluated as controls.

Series [2] in a line: Cataleptogenic activity (extrapyramidal side effect): catalepsy provoking effect in mice. The settings on record: mouse, in vivo, ip. The procedure: (§1) The extrapyramidal activity was evaluated on the basis of the catalepsy provoking effect as a representative pharmacological evaluation method of the extrapyramidal effect. Male ddY mice having a body weight of 25-35 g which were divided into groups consisting of 3-6 animals were subjected to the test. The compound of the present invention was administered intraperitoneally to observe catalepsy after 20, 30 and 40 minutes, respectively. Catalepsy was judged as positive in such cases that a mouse whose front paw was compulsorily hung up on an iron bar having a diameter of 1 mm and horizontally laid at a height of 3 cm remained in such a strained posture for more than 30 seconds.

The subject of another series is catalepsy in mice. The description is as above. The settings on record: ip. The procedure: as §1
Setting [3] is: male ddY mice, methamphetamine 2 mg/kg sc 15 min before compound, locomotion measured for 30 min.

Like-named read-outs stand apart in the source and are kept apart here.

With `O=C(CCCN1CCC(O)(c2ccc(Cl)cc2)CC1)c1ccc(F)cc1` [Haloperidol, haloperidol], the ED50 in series [1] is 0.16 mg/kg. Further, the “anti-methamphetamine activity, that is the anti-psychotic activity (in words)” value (“anti-methamphetamine activity” below) in series [1] (male ddY mice) is “have the anti-methamphetamine activity”. The TD50 in series [2] was 1.3 mg/kg. Moreover, the “catalepsy provoking effect / extrapyramidal side effect (in words)” value in the series with catalepsy in mice (male ddY mice) was “strong catalepsy provoking effect”.

With `O=c1ccc2ccccc2n1CCCN1CCN(c2nsc3ccccc23)CC1` [Example 5, 1-[4-[4-(1,2-benzisothiazol-3-yl)-1-piperazinyl]propyl]-2(1H)-quinolinone], the ED50 in series [1] (setting [3]) was determined as 0.92 mg/kg. In addition, in series [1] (male ddY mice), the “anti-methamphetamine activity” value is recorded as “have the anti-methamphetamine activity”. In series [2], the TD50 is 83.3 mg/kg. The “catalepsy provoking effect / extrapyramidal side effect (in words)” value in the series on catalepsy in mice (mouse, in vivo) is listed as “very weak extrapyramidal side effect”.

Turning to `CN(C)CCCN1c2ccccc2Sc2ccc(Cl)cc21` [Chlorpromazine, chlorpromazine], the ED50 in series [1] was 1.05 mg/kg. Moreover, the “anti-methamphetamine activity” value in series [1] (male ddY mice) was “have the anti-methamphetamine activity”. In series [2], this compound showed a TD50 of 6.2 mg/kg. In addition, the “catalepsy provoking effect / extrapyramidal side effect (in words)” value in the series on catalepsy in mice (male ddY mice) is reported as “strong catalepsy provoking effect”.

As to `c1ccc2c(N3CCN(CCCCn4c5ccccc5c5ccccc54)CC3)nsc2c1` [Example 2, 9-[4-[4-(1,2-benzisothiazol-3-yl)-1-piperazinyl]butyl]carbazole], in series [1] (setting [3]), the ED50 came out at 1.15 mg/kg. The “anti-methamphetamine activity” value in series [1] (male ddY mice) is given as “have the anti-methamphetamine activity”. In addition, the TD50 in series [2] is more than 100 mg/kg. Besides, the “catalepsy provoking effect / extrapyramidal side effect (in words)” value in the series on catalepsy in mice (mouse, in vivo) is “very weak extrapyramidal side effect”.

Broadly, the ED50 is the dose at which the effect has come halfway, by size or by number of responders.
